In publication PMC4626032, “The YHS-Domain of an Adenylyl Cyclase from Mycobacterium phlei Is a Probable Copper-Sensor Module” (PLoS ONE, 2015) one finds Km and Kd data, which are given here for two compounds.

Assay [1] deals with T1, MpAC1-182.
T1 construct: gene MpAC; isolated catalytic domain (CHD), residues 1-182 of 233, YHS domain removed; N-terminal MRGSH6GS tag kept, C-terminal extra Ala; codon-optimized gene in E. coli BL21(DE3)[pRep4]; class III ACs act as head-to-tail dimers
As to the kind of experiment: cAMP formation determined by HPLC. Particulars: 5 mM Mn2+, no Cu2+, pH 8.0, 30 °C; Hill coefficient 1.5 ± 0.2; read-out: SC50 [mM ATP]. In kind it is biochemical, Mycolicibacterium phlei. From the text:
cAMP formation determined by HPLC on MpAC1-182

Assay [2] concerns T2, MpAC1-233.
T2 construct: gene MpAC; full length, residues 1-233 (CHD plus C-terminal YHS domain); His-TEV tag removed, N-terminal GS dipeptide remains; codon-optimized gene in E. coli BL21(DE3)[pRep4]
As to the kind of experiment: cAMP formation determined by HPLC. Type of assay: biochemical, Mycolicibacterium phlei. Particulars: 5 mM Mn2+, no Cu2+, pH 8.0, 30 °C; Hill coefficient 0.9 ± 0.1; read-out: SC50 [mM ATP]. From the text:
cAMP formation determined by HPLC on MpAC1-233

Assay [3] has as its target full-length Mycobacterium phlei adenylyl cyclase, untagged MpAC_(1-233) (Mycobacterium phlei). As to the kind of experiment: protein dependence of adenylyl cyclase activity; dimer to monomers; dissociation constant calculated from the protein dependance of the AC activity; data not shown.

For the compound `Nc1ncnc2c1ncn2[C@@H]1O[C@H](COP(=O)(O)OP(=O)(O)OP(=O)(O)O)[C@@H](O)[C@H]1O` [ATP], the Km in assay [1] was found to be 0.9 ± 0.22 mM; in assay [2] it was 2.11 ± 0.54 mM.

As to “full-length Mycobacterium phlei adenylyl cyclase, untagged MpAC_(1-233) (enzyme)”, the Kd in assay [3] is 160 nM.
